Assays:
Type in all cases: cell-based, human
MCF-7 breast cancer cell = experiment: MTT cell growth inhibition assay, MCF-7
Text: (§1) All human cell lines were used in this study. MGC-803 late-stage differentiation gastric cancer cell, A549 lung cancer cell, HepG2 hepatoma cell, AGS gastric cancer cell, BEL-7402 liver cancer cell, HCT-116 colorectal cancer cell, HeLa cervical cancer cell, SGC-7901 early differentiation gastric cancer cell, L-02 normal liver cell, MCF-7 breast cancer cell, and MCF-10A normal breast cell were initially purchased from American Type Culture Collection (ATCC, Manassas, VA, USA). RPMI-1640 media, Dulbecco’s modified Eagle’s medium (DMEM), and foetal bovine serum (FBS) were provided from Gibco Company (Grand Island, NY, USA). The cells were maintained in DMEM or RPMI-1640, supplemented with 10% FBS, 100 IU/mL penicillin and […] (Grand Island, NY, USA), and at 37 °C in a humidified atmosphere containing 5% CO2.
(§2) Cells were plated in 96-well plates at a density of 30–40% to ensure exponential growth throughout the experimental period, and then allowed to adhere for 1 day[21]. Next, the cells were treated with four serial concentrations (1, 10, 50, and 100 µM) of each compound. Taxol, CA-4, and CA-4P (phosphorylated form of CA-4) were used as positive controls. After 48 h incubation, MTT solution was added to each well at a final concentration of 2 mg/mL, and incubated for an additional 4 h. Next, the MTT solution was removed and 150 µL of dimethyl sulphoxide (DMSO)/well was added (Sigma-Aldrich, St Louis, MO, USA). The plates were shaken vigorously at RT to ensure complete solubilisation, and absorption at 492 nm was determined.
(§3) According to standard protocol, preliminary in vitro anti-proliferative activities of the synthesised compounds were evaluated by MTT assay, using nine human cancer cell lines (MGC-803, A549, HepG2, AGS, BEL-7402, HCT116, HeLa, SGC-7901, and MCF-7) and two normal human cell lines (L-02 and MCF-10A), and compared with those of CA-4, CA-4P, and taxol.

BEL-7402 cells [1] = experiment: Analysis for cell cycle by flow cytometry; conditions: BEL-7402, 12 h incubation, concentration-dependent increase from-to (0.01, 0.05, 0.1 µM)
Experimental: BEL-7402 cells were plated 6-well plates with 5.0 × 10^5 cells/well for overnight (O/N) and were synchronised at the G0 phase by serum starvation (0.1% FBS in RPMI-1640) for 24 h. Then the cells were incubated with 0.01, 0.05, 0.1 µM of 6h and 0.1 μM of taxol, respectively. Vehicle group was treated with 0.1% DMSO. Following 12 h of incubation, the cells were detached with 0.05% trypsin/5 mM EDTA and centrifuged at 1000 rpm for 10 min, and fixed in 70% ethanol at −20 °C for O/N. Then, the cells were subsequently analysed the cell cycle distribution by flow cytometry using a FACSCalibur flow cytometer with Cell Quest software (Becton-Dickinson, Franklin Lakes, NJ, USA), plotting at least 30,000 events per sample[22]. The percentage of cells in the G0/G1, S, and G2/M phases of the cell cycle were determined using the ModFit LT version 4.0 software package (Verity Software, Topsham, ME, USA).

HepG2 hepatoma cell = experiment: MTT cell growth inhibition assay, HepG-2
Text: as §1, §2, §3

BEL-7402 cells [2] = experiment: Transwell cell migration assay; conditions: BEL-7402, transwell, 24 h, 0.1 or 0.5 µM
Experimental: Quantitative cell migration was performed using 24-well Boyden chambers (Corning, NY, USA) as described. Briefly, transwells with 8-µm pore size filters were inserted into 24-well plates. RPMI-1640 (500 µL) containing 10% FBS was added to the lower chamber, and 100 µL of a serum-free cell suspension (1 × 10^5 cells) was placed in the upper chamber. The BEL-7402 cells were pre-treated with indicated concentrations of 6h, taxol, or DMSO. The plates were incubated at 37 °C with 5% CO2 for 24 h, and the cells on the upside were removed using cotton swaps. After several rinses, the cells adhering in the lower layer of insert were fixed with methanol and stained with 1× crystal violet solution. The number of migrated cells in nine randomly selected fields from triplicate chambers was counted in each experiment under a phase-contrast microscope at 200× magnification.

BEL-7402 cells [3] = experiment: MTT cell growth inhibition assay, BEL-7402; conditions: Homo sapiens; MTT, 48 h incubation, Bel-7402
Text: as §1, §2, §3

A549 lung cancer cell = experiment: MTT cell growth inhibition assay, A549
Text: as §1, §2, §3

BEL-7402 cells [4] = experiment: Colony formation assay; conditions: BEL-7402, exposure > 10 days, fitted from inhibition ratio of colony formation
Experimental: A previously described colony formation assay was used[7] with slight modification. 1 × 10^4 BEL-7402 cells/well were seeded into 6-well plates and then stimulated with the indicated concentration of 6h, taxol, or DMSO. The plates were removed from incubation when colonies were large enough to count (>50 cells). Colonies were then fixed and stained with 1 × Giemsa solution, rinsed, allowed to dry, and counted. All the experiments were repeated independently at least three times. The LD50 value for 6h was determined using SigmaPlot II.

HCT116 cells = experiment: MTT cell growth inhibition assay, HCT116
Text: as §1, §2, §3

AGS cells = experiment: MTT cell growth inhibition assay, AGS
Text: as §1, §2, §3

cyclin D1 = experiment: Western blotting, cyclin D1; conditions: BEL-7402, 12 h, immunoblot, dose-dependent
Experimental: BEL-7402 cells were harvested in logarithmic growth phase and the adherent and floating cells were collected after 12 h of drug treatment. The collected cells were resuspended in cold RIPA buffer (100 mM NaCl, 100 mM Tris (pH7.4), 10% Triton X-100, 1 mM PMSF, pH7.5) with 0.1 µM leupetin protease inhibitor as well as 1 µg/mL pepstatin and cracked on ice for 30 min. Then according to the reference to did immunoblotting assay.

[5] = system: HeLa cervical cancer cell; experiment: MTT cell growth inhibition assay, HeLa; conditions: Homo sapiens, 48 h incubation
Text: as §1, §2, §3

COc1cc(/C(C#N)=C/c2ccc(C)cc2)cc(OC)c1OC [Compound 6h, (Z)-3-(p-Tolyl)-2-(3,4,5-trimethoxyphenyl)acrylonitrile]
IC50 (MCF-7 breast cancer cell; Homo sapiens, MCF7, MTT, 48 h incubation, MCF-7): 2610 ± 980 nM
SI IC50 (MCF-10A/MCF-7) (MCF-7 breast cancer cell; selectivity index, IC50 (MCF-10A)/IC50 (MCF-7)): >3.6
percentage of S cell population (BEL-7402 cells [1]): 4.44–19.35%
IC50 (HepG2 hepatoma cell; Homo sapiens, HepG2, MTT, 48 h incubation, HepG-2): 3740 ± 1730 nM
SI IC50 (L-02/HepG-2) (HepG2 hepatoma cell; selectivity index, IC50 (L-02)/IC50 (HepG-2)): >26.7
migration ratio compared with the control group (BEL-7402 cells [2]): markedly decreased
IC50 (BEL-7402 cells [3]): 150 ± 30 nM
IC50 (A549 lung cancer cell; Homo sapiens, MTT, 48 h incubation, A549): 530 ± 23 nM
SI IC50 (L-02/A549) (A549 lung cancer cell; selectivity index, IC50 (L-02)/IC50 (A549)): >188.6
LD50 (colony formation) (BEL-7402 cells [4]): 0.056 ± 0.0047 µM
IC50 (HCT116 cells; Homo sapiens, HCT-116, MTT, 48 h incubation, HCT116): 610 ± 160 nM
SI IC50 (L-02/HCT116) (HCT116 cells; selectivity index, IC50 (L-02)/IC50 (HCT116)): >163.9
IC50 (AGS cells; Homo sapiens, MTT, 48 h incubation, AGS): 510 ± 450 nM
SI IC50 (L-02/AGS) (AGS cells; selectivity index, IC50 (L-02)/IC50 (AGS)): >196.0
expression of cyclin D1 compared with the vehicle group (cyclin D1): lower expression
IC50 [5]: > 100000 nM

Source: paper PMC6161602, “Synthesis and characterisation of (Z)-styrylbenzene derivatives as potential selective anticancer agents” (Journal of Enzyme Inhibition and Medicinal Chemistry, 2018)
